The values that follow come from ChEMBL document CHEMBL1155045, “Apoptosis-inducing galactolipids from a cultured marine diatom, Phaeodactylum tricornutum” (2008).

Type in all cases: functional
The nature of experiment [1]: Induction of apoptosis in mouse W2 cells assessed as cell death at 52 uM after 48 hrs by MTT assay. For orientation: Tetrazolium assays rely on reduction of a dye to a coloured formazan, in cell work by metabolically active cells.
Experiment [2] is described as follows: Effect on apoptosis-inducing gene deffective mouse D3 cells assessed as cell growth at 52 uM after 48 hrs by MTT assay. To be noted: D3, 48 h, read-out: Activity.
Experiment [3] can be described thus: Effect on apoptosis-inducing gene deffective mouse D3 cells assessed as cell growth at 64 uM after 48 hrs by MTT assay. The settings on record: D3, 48 h, read-out: Activity.
Experiment [4] in a line: Induction of apoptosis in mouse W2 cells assessed as cell death at 64 uM after 48 hrs by MTT assay.

On to `CC/C=C\C/C=C\C/C=C\C/C=C\C/C=C\CCCC(=O)OC[C@H](CO[C@@H]1O[C@H](CO)[C@H](O)[C@H](O)C1O)OC(=O)CCCC/C=C\C/C=C\C/C=C\CCC` (single isomer, unassigned), for which the Activity in experiment [1] came out at 18%. For the same molecule, in experiment [2], the growth at 52 µM came to 10%.

With `CC/C=C\C/C=C\C/C=C\C/C=C\C/C=C\CC(=O)OC[C@H](CO[C@@H]1O[C@H](CO)[C@H](O)[C@H](O)C1O)OC(=O)CCCC/C=C\C/C=C\C/C=C\C/C=C\CC` (single isomer, unassigned), the growth at 64 µM in experiment [3] came out at 14%. Moreover, the Activity in experiment [4] is listed as 18%.
